# Experimental data taken from patent US20030211577A1, “Novel G protein-coupled receptor, GAVE7” (priority 2001, published 2003).
# Tested on: GAVE7 expression in THP-1 cells
# Test: Immune cell regulation: GAVE7 expression in PMA-differentiated THP-1 cells by Northern blot or TaqMan assay
# Format: cell-based
# Details: PMA differentiated THP-1 cells stimulated with LPS (10 μg/ml) for 4 hours and 24 hours, actin control
# Method: THP-1 cells were obtainied from the American Type Culture Collection (Manassas, Va.) and maintained in RPMI culture medium (RPMI 1640, 100 IU/ml penicillin-streptomycin, 10% heat-inactivated fetal bovine serum) at 37° C. in a humidfied 95% air/5% CO2 tissue culture incubator. THP-1 cells were treated with 10 nM phorbol-12-myristate-13-acetate (PMA) and incubated overnight to differentiate the monocyte into an adhereent macrophage-type cell. The differentiated cells adhere, stop proliferating and express high levels of CD14. LPS activates macrophages and elicits an inflammatory response. The cells were washed once with the culture medium and grown for an additional 48 hours in the absence of PMA. The PMA differentiated cells were stimulted with or without LPS (10 μg/ml) for 4 hours and 24 hours.
# The cells then were assayed for GAVE7 expression by Northern blot or TaqMan assay. Cell exposed to actin served as a control.
substance,measurement,value
Lipopolysaccharide [LPS],GAVE7 expression,down-regulated
